{"source": "patent US9266830B2", "about": "“Pesticidal arylpyrrolidines” (Bayer Intellectual Property GmbH, priority 2007, dated 2016)", "system": "Boophilus microplus", "experiment": "Boophilus microplus test (injection)", "type": "in vivo", "conditions": "application rate 20 μg/animal, adult engorged females, after 7 days", "procedure": "Solvent: dimethyl sulfoxide\nTo produce a suitable preparation of active compound, 10 mg of active compound are dissolved in 0.5 ml solvent, and the concentrate is diluted with solvent to the desired concentration. Five adult engorged female ticks (Boophilus microplus) are injected with compound solution into the abdomen. Ticks are transferred into replica plates and incubated in a climate chamber for a period of time. Egg deposition of fertile eggs is monitored. After 7 days mortality in % is determined 100% means that all eggs are infertile; 0% means that all eggs are fertile."}
{"smiles": "CC(C)C(=O)NCc1ccc(N2CCC(c3cc(Cl)cc(Cl)c3)(C(F)(F)F)C2)cc1Cl", "note": "(stereo not drawn) [1-3]", "values": [{"measurement": "activity (100% means that all eggs are infertile)", "result": 100, "unit": "%"}]}
{"smiles": "O=C(NCc1ccc(N2CCC(c3cc(Cl)cc(Cl)c3)(C(F)(F)F)C2)cc1Cl)C1CC1", "note": "(stereo not drawn) [1-4]", "values": [{"measurement": "activity (100% means that all eggs are infertile)", "result": 100, "unit": "%"}]}
{"smiles": "O=C(NCc1ccc(N2CCC(c3cc(Cl)cc(Cl)c3)(C(F)(F)F)C2)cc1Cl)C1CCC1", "note": "(stereo not drawn) [1-8]", "values": [{"measurement": "activity (100% means that all eggs are infertile)", "result": 100, "unit": "%"}]}
{"smiles": "O=C(CC1CC1)NCc1ccc(N2CCC(c3cc(Cl)cc(Cl)c3)(C(F)(F)F)C2)cc1Cl", "note": "(stereo not drawn) [1-12]", "values": [{"measurement": "activity (100% means that all eggs are infertile)", "result": 100, "unit": "%"}]}
{"smiles": "O=C(CC(F)(F)F)NCc1ccc(N2CCC(c3cc(Cl)cc(Cl)c3)(C(F)(F)F)C2)cc1Cl", "note": "(stereo not drawn) [1-19]", "values": [{"measurement": "activity (100% means that all eggs are infertile)", "result": 100, "unit": "%"}]}
{"smiles": "O=C(NCc1ccc(N2CCC(c3cc(Cl)cc(Cl)c3)(C(F)(F)F)C2)cc1Cl)C(F)F", "note": "(stereo not drawn) [1-21]", "values": [{"measurement": "activity (100% means that all eggs are infertile)", "result": 100, "unit": "%"}]}
{"smiles": "O=C(NCc1ccc(N2CCC(c3cc(Cl)cc(Cl)c3)(C(F)(F)F)C2)cc1Cl)C1CC1(Cl)Cl", "note": "(stereo not drawn) [1-24]", "values": [{"measurement": "activity (100% means that all eggs are infertile)", "result": 100, "unit": "%"}]}
{"smiles": "O=C(NCc1ccc(N2CCC(c3cc(Cl)cc(Cl)c3)(C(F)(F)F)C2)cc1Cl)C1CC1(F)F", "note": "(stereo not drawn) [1-25]", "values": [{"measurement": "activity (100% means that all eggs are infertile)", "result": 100, "unit": "%"}]}
{"smiles": "CC=CC(=O)NCc1ccc(N2CCC(c3cc(Cl)cc(Cl)c3)(C(F)(F)F)C2)cc1Cl", "note": "(stereo not drawn) [1-30]", "values": [{"measurement": "activity (100% means that all eggs are infertile)", "result": 100, "unit": "%"}]}
{"smiles": "C=CCC(=O)NCc1ccc(N2CCC(c3cc(Cl)cc(Cl)c3)(C(F)(F)F)C2)cc1Cl", "note": "(stereo not drawn) [1-36]", "values": [{"measurement": "activity (100% means that all eggs are infertile)", "result": 100, "unit": "%"}]}
{"smiles": "COCC(=O)NCc1ccc(N2CCC(c3cc(Cl)cc(Cl)c3)(C(F)(F)F)C2)cc1Cl", "note": "(stereo not drawn) [1-40]", "values": [{"measurement": "activity (100% means that all eggs are infertile)", "result": 100, "unit": "%"}]}
{"smiles": "CSCC(=O)NCc1ccc(N2CCC(c3cc(Cl)cc(Cl)c3)(C(F)(F)F)C2)cc1Cl", "note": "(stereo not drawn) [1-42]", "values": [{"measurement": "activity (100% means that all eggs are infertile)", "result": 100, "unit": "%"}]}
{"smiles": "CN(Cc1ccc(N2CCC(c3cc(Cl)cc(Cl)c3)(C(F)(F)F)C2)cc1Cl)C(=O)CC(F)(F)F", "note": "(stereo not drawn) [1-75]", "values": [{"measurement": "activity (100% means that all eggs are infertile)", "result": 100, "unit": "%"}]}
{"smiles": "O=C(NCc1ccc(N2CCC(c3cc(Cl)cc(Cl)c3)(C(F)(F)F)C2)cc1Cl)NC1CC1", "note": "(stereo not drawn) [1-81]", "values": [{"measurement": "activity (100% means that all eggs are infertile)", "result": 100, "unit": "%"}]}
{"smiles": "C#CCNC(=O)NCc1ccc(N2CCC(c3cc(Cl)cc(Cl)c3)(C(F)(F)F)C2)cc1Cl", "note": "(stereo not drawn) [1-88]", "values": [{"measurement": "activity (100% means that all eggs are infertile)", "result": 100, "unit": "%"}]}
{"smiles": "CCNC(=O)N(C)Cc1ccc(N2CCC(c3cc(Cl)cc(Cl)c3)(C(F)(F)F)C2)cc1Cl", "note": "(stereo not drawn) [1-113]", "values": [{"measurement": "activity (100% means that all eggs are infertile)", "result": 100, "unit": "%"}]}
{"smiles": "NCc1ccc(N2CCC(c3cc(Cl)cc(Cl)c3)(C(F)(F)F)C2)cc1C(F)(F)F", "note": "(stereo not drawn) [1-141]", "values": [{"measurement": "activity (100% means that all eggs are infertile)", "result": 100, "unit": "%"}]}
{"smiles": "CC(C)C(=O)NCc1ccc(N2CCC(c3cc(Cl)cc(Cl)c3)(C(F)(F)F)C2)cc1C(F)(F)F", "note": "(stereo not drawn) [1-145]", "values": [{"measurement": "activity (100% means that all eggs are infertile)", "result": 100, "unit": "%"}]}
{"smiles": "O=C(NCc1ccc(N2CCC(c3cc(Cl)cc(Cl)c3)(C(F)(F)F)C2)cc1C(F)(F)F)C1CC1", "note": "(stereo not drawn) [1-146]", "values": [{"measurement": "activity (100% means that all eggs are infertile)", "result": 100, "unit": "%"}]}
{"smiles": "O=C(NCc1ccc(N2CCC(c3cc(Cl)cc(Cl)c3)(C(F)(F)F)C2)cc1C(F)(F)F)C1CCC1", "note": "(stereo not drawn) [1-150]", "values": [{"measurement": "activity (100% means that all eggs are infertile)", "result": 100, "unit": "%"}]}
{"smiles": "O=C(CC1CC1)NCc1ccc(N2CCC(c3cc(Cl)cc(Cl)c3)(C(F)(F)F)C2)cc1C(F)(F)F", "note": "(stereo not drawn) [1-155]", "values": [{"measurement": "activity (100% means that all eggs are infertile)", "result": 100, "unit": "%"}]}
{"smiles": "C=CC(=O)NCc1ccc(N2CCC(c3cc(Cl)cc(Cl)c3)(C(F)(F)F)C2)cc1C(F)(F)F", "note": "(stereo not drawn) [1-173]", "values": [{"measurement": "activity (100% means that all eggs are infertile)", "result": 100, "unit": "%"}]}
{"smiles": "C=CCC(=O)NCc1ccc(N2CCC(c3cc(Cl)cc(Cl)c3)(C(F)(F)F)C2)cc1C(F)(F)F", "note": "(stereo not drawn) [1-180]", "values": [{"measurement": "activity (100% means that all eggs are infertile)", "result": 100, "unit": "%"}]}
{"smiles": "N#CCC(=O)NCc1ccc(N2CCC(c3cc(Cl)cc(Cl)c3)(C(F)(F)F)C2)cc1C(F)(F)F", "note": "(stereo not drawn) [1-183]", "values": [{"measurement": "activity (100% means that all eggs are infertile)", "result": 100, "unit": "%"}]}
{"smiles": "CSCC(=O)NCc1ccc(N2CCC(c3cc(Cl)cc(Cl)c3)(C(F)(F)F)C2)cc1C(F)(F)F", "note": "(stereo not drawn) [1-186]", "values": [{"measurement": "activity (100% means that all eggs are infertile)", "result": 100, "unit": "%"}]}
{"smiles": "CC(=O)OCC(=O)NCc1ccc(N2CCC(c3cc(Cl)cc(Cl)c3)(C(F)(F)F)C2)cc1C(F)(F)F", "note": "(stereo not drawn) [1-188]", "values": [{"measurement": "activity (100% means that all eggs are infertile)", "result": 100, "unit": "%"}]}
{"smiles": "CCCNC(=O)NCc1ccc(N2CCC(c3cc(Cl)cc(Cl)c3)(C(F)(F)F)C2)cc1C(F)(F)F", "note": "(stereo not drawn) [1-222]", "values": [{"measurement": "activity (100% means that all eggs are infertile)", "result": 100, "unit": "%"}]}
